In patent publication US5880095A, “Cholesteryl ester transfer protein inhibitor peptides and prophylactic and therapeutic anti-arteriosclerosis agents” (LG Chemical Ltd., priority 1994, dated 1999):
Read-outs that look alike come from different tables or passages of the source. Each block holds one sequence with its values, some of them ahead of it. No end group written: not given here.

Assays:
[1] = target: T1, CETP (human blood plasma as CETP source) (Homo sapiens, UniProt P11597); experiment: Determination of CETP inhibitory activity, human blood plasma itself as CETP source; type: biochemical
T1 construct: human blood plasma itself was used as the CETP source; from tissue; host or cells: human blood plasma (used as such)
T1 sequence (P11597 18-493): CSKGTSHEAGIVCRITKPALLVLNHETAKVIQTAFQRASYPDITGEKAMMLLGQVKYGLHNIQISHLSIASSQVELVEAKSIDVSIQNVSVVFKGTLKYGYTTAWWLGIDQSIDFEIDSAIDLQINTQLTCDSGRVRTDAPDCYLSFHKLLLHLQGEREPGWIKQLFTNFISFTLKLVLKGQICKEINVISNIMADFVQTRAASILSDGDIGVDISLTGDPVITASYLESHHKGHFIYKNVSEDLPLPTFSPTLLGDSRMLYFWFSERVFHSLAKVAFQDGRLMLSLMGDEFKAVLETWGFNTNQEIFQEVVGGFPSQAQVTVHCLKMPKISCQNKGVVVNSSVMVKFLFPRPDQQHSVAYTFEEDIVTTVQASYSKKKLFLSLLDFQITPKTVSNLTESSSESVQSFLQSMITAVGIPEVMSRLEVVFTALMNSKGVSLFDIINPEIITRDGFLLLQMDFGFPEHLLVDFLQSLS
Protocol: (§1) LDL and [^3 H]-cholesteryl oleate-labelled HDL were synthesized in accordance with the method of Morton et al.(see, J. Biol. Chem., 256, 11992-11995(1981)) and then separated using an ultracentrifuge(Beckman XL 70). LDL and [^3 H]-HDL, thus prepared, were used as a CE-receptor and a CE-donor, respectively.
(§2) 0.3 ml of LDL, 0.05 ml of [^3 H]-HDL and 0.05 ml of the CETP source, which were prepared above, and 0.05 ml of a CETP inhibitor were added into a 1.5 ml tube and reacted at 37° C. for 3 hours.
(§3) When the reaction was finished, LDL was precipitated in accordance with the method of Morton et al.(see, Biochim. Biophys. Acta, 663, 350-355(1981)). The amount of the isotope transferred to LDL was determined with a liquid scintillation counter(Packard Tricarb 1600 TR) using a part of the supernatant, and the activity of CETP was calculated therefrom.
(§4) The inhibitory activity of the CETP inhibitor was calculated from the CETP activities of the experimental group, in which the CETP inhibitor was added, and that of control group, in which no CETP inhibitor was added, as follows: [formula]
Further, the same procedures as in the Reference Example, except that human blood plasma itself was used as the CETP source, were repeated to determine CETP inhibitory activity of pure 3 kDa peptide.
CETP inhibitory activities of peptides P28, P10, P18, P24, P20 and P14 were determined in accordance with the method of Reference Example 1 using pure CETP or human blood plasma as a CETP source. To exclude possible nonspecific inhibition, a 2 kDa soluble peptide having an optional amino acid sequence was synthesized, and CETP inhibitory activity thereof was determined in a similar manner(control group).

[2] = target: T2, pure CETP separated from human blood plasma (Homo sapiens, UniProt P11597); experiment: Determination of CETP inhibitory activity (CE transfer from [3H]-HDL to LDL), pure CETP as CETP source; type: biochemical; conditions: for inhibition at 7 µM: final conc. 7 μM; for inhibition at 9 µM: final conc. 9 μM
T2 construct: Pure CETP was separated from human blood plasma in accordance with the method of Hesler et al; from tissue; host or cells: human blood plasma
T2 sequence (P11597 18-493): T1 sequence (P11597 18-493)
Protocol: as §1
(§5) Pure CETP was separated from human blood plasma in accordance with the method of Hesler et al.(see, J. Biol. Chem., 262, 2275-2282(1987)) and used as a CETP source.
as §2, §3, §4

[3] = test system: Human fibroblast cell line(A431, ATCC CRL 1555); experiment: Toxicity test on cultured cells; type: cell-based; conditions: 10% (wt/vol) peptide, 72 hours, DMEM with 10% FBS, compared with control without peptide
Protocol: Human fibroblast cell line(A431, ATCC CRL 1555) was cultured on DMEM medium containing 10% fetal bovine serum(FBS), with the addition of 10% (wt/vol) Peptide P28, P18, P10, P24, P20 or P14, for 72 hours.

CETP = target: T3, CETP (Homo sapiens, UniProt P11597); experiment: CETP inhibitory activity of Peptide P28 according to the substrate (CE-receptor VLDL, LDL, HDL or LDLR); type: biochemical; conditions: final concentration 2 μM
T3 construct: Pure CETP was separated from human blood plasma in accordance with the method of Hesler et al; from tissue; host or cells: human blood plasma
T3 sequence (P11597 18-493): T1 sequence (P11597 18-493)
Protocol: as §1, §5, §2, §3, §4
In order to identify the inhibitory mechanism of Peptide P28 in blood, CETP inhibitory activity of Peptide P28 was determined in accordance with the method of Reference Example 1, using VLDL, LDL, HDL or re-synthesized LDL(LDLR) as a CE-receptor. LDLR was synthesized from LDL obtained in Reference Example 1 by the method of Morton et al.(see, J. Biol. Chem., 256, 11992-11995(1981)). The LDL was delipidated with chloroform and subjected to a gel chromatography to obtain ApoB100 protein. Phosphatidylcholine and cholesteryl oleate was thoroughly mixed, dried using nitrogen gas, and ApoB100 protein obtained above was added thereto. The mixture was reacted with stirring, dialyzed against tris buffer, and subjected to a gel chromatography to obtain LDLR.

[4] = conc. of inhibitor 2 μM, CETP source human plasma, peptides expressed in E. coli, read-out: Inhibitory Activity (Mean ± SD)
[5] = final conc. of peptide 2 μM, CETP source pure CETP, synthesized peptides
[6] = alanine variants of P10, CETP source not given
[7] = final conc. of peptide 2 μM, CETP source human plasma, P28' and P13 produced in E. coli, read-out: Inhibitory Activity

Sequence: EDTSPEAKMQ [Variant G]
inhibition at 2 µM ([2]; final conc. 2 μM, alanine variants of P10, CETP source not given, read-out: CETP inhibitory activity): -3%

Sequence: EDTSPADKMQ [Variant F]
inhibition at 6 µM ([2]; final conc. 6 μM, alanine variants of P10, CETP source not given): 29%

Sequence: EATSPEDKMQ [Variant B]
inhibition at 7 µM [2, 6]: -15%

Sequence: ADTSPEDKMQ [Variant A]
inhibition at 7 µM [2, 6]: -12%

Sequence: EDTSAEDKMQ [Variant E]
inhibition at 9 µM [2, 6]: -6%

Sequence: EDTAPEDKMQ [Variant D]
inhibition at 7 µM [2, 6]: -12%

Sequence: EDASPEDKMQ [Variant C]
inhibition at 8 µM ([2]; final conc. 8 μM, alanine variants of P10, CETP source not given): -6%

Sequence: EDTSPEDKMA [Variant J]
inhibition at 7 µM [2, 6]: 41%

Sequence: EDTSPEDAMQ [Variant H]
inhibition at 5 µM ([2]; final conc. 5 μM, alanine variants of P10, CETP source not given): 5%

Sequence: EDTSPEDKAQ [Variant I]
inhibition at 9 µM [2, 6]: 69%

The next lines start with results.

inhibition at 2 µM [1, 4]: 15 ± 1.5% | Inhibitory Activity (Mean ± S.D.) [2, 5]: 50 ± 3.5%
Sequence: EDTSPEDKMQDYVK [Peptide P14]
change in growth condition and morphology of cultured cells [3]: no change

inhibition at 0.001 µM ([1]; 1 nM, human blood plasma itself as CETP source, read-out: CETP inhibitory activity (FIG. 4, curve B)): ~50% | inhibition at 0.001 µM ([2]; 1 nM, pure CETP separated from human blood plasma, read-out: CETP inhibitory activity (FIG. 4, curve A)): ~100% | inhibition at 2 µM (CETP; CE-receptor LDL, read-out: inhibition of the transfer of CE from HDL to LDL): 50% | inhibition at 2 µM (CETP; CE-receptor VLDL, read-out: inhibition of the transfer of CE from HDL to VLDL): ~10% | inhibition at 2 µM (CETP; CE-receptor re-synthesized LDL (LDLR), read-out: inhibition of the transfer of CE from HDL to LDLR): 55%
Sequence: EDTSPEDKMQDYVKQATRTAQDALTSVK [Peptide P28]

inhibition at 2 µM [1, 4]: 45 ± 2.2% | Inhibitory Activity (Mean ± S.D.) [2, 5]: 90 ± 1.5%
Sequence: EDTSPEDKMQDYVKQATRTA [Peptide P20]
change in growth condition and morphology of cultured cells [3]: no change

inhibition at 2 µM [1, 4]: 50 ± 0.8% | Inhibitory Activity (Mean ± S.D.) [2, 5]: 100 ± 2.5%
Sequence: EDTSPEDKMQDYVKQATRTAQDAL [Peptide P24]
change in growth condition and morphology of cultured cells [3]: no change

inhibition at 2 µM [1, 7]: 34 ± 2.9%
Sequence: SEAEDASLLSFMQ [Peptide P13]

inhibition at 2 µM [1, 7]: 45 ± 2.3% | inhibition at 2 µM ([1]; final conc. of peptide 2 μM, CETP source human plasma, synthesized peptides, read-out: Inhibitory Activity (Mean ± S.D.)): 50 ± 4.5% | inhibition at 2 µM ([2]; final conc. of peptide 2 μM, CETP source pure CETP, synthesized peptides, read-out: Inhibitory Activity (Mean ± S.D.)): 100 ± 2%
Sequence: EDTSPEDKMQ [Peptide P10]
change in growth condition and morphology of cultured cells [3]: no change

Inhibitory Activity (Mean ± S.D.) ([1]; final conc. of peptide 2 μM, CETP source human plasma, synthesized peptides): 40 ± 5.5% | Inhibitory Activity (Mean ± S.D.) [2, 5]: 90 ± 3.5%
Sequence: EDTSLLDKMQDYVKQATR [Peptide P18]
change in growth condition and morphology of cultured cells [3]: no change
